Data reported in BigSolDB 2.1.

## COc1ccc2nc(SCc3ncc(C)c(OC)c3C)[nH]c2c1
In ethanol, 277.65 K
  solubility (mole fraction): 0.0029
In ethanol, 282.65 K
  solubility (mole fraction): 0.00371
In ethanol, 288.15 K
  solubility (mole fraction): 0.00483
In ethanol, 293.15 K
  solubility (mole fraction): 0.00614
In ethanol, 298.05 K
  solubility (mole fraction): 0.00773
In ethanol, 302.15 K
  solubility (mole fraction): 0.00935
In ethanol, 307.65 K
  solubility (mole fraction): 0.012
In ethanol, 313.15 K
  solubility (mole fraction): 0.0155
In ethanol, 317.65 K
  solubility (mole fraction): 0.0189
In ethanol, 322.15 K
  solubility (mole fraction): 0.0231
In ethanol, 327.65 K
  solubility (mole fraction): 0.0293
In ethanol, 333.15 K
  solubility (mole fraction): 0.0372
In ethyl acetate, 277.65 K
  solubility (mole fraction): 0.0117
In ethyl acetate, 282.65 K
  solubility (mole fraction): 0.0168
In ethyl acetate, 288.15 K
  solubility (mole fraction): 0.0244
In ethyl acetate, 293.15 K
  solubility (mole fraction): 0.0337
In ethyl acetate, 298.05 K
  solubility (mole fraction): 0.0455
In ethyl acetate, 302.15 K
  solubility (mole fraction): 0.0577
In ethyl acetate, 307.65 K
  solubility (mole fraction): 0.0781
In ethyl acetate, 313.15 K
  solubility (mole fraction): 0.104
In ethyl acetate, 317.65 K
  solubility (mole fraction): 0.129
In ethyl acetate, 322.15 K
  solubility (mole fraction): 0.16
In ethyl acetate, 327.65 K
  solubility (mole fraction): 0.203
In ethyl acetate, 333.15 K
  solubility (mole fraction): 0.256
